Earlier results, collected in patent US6818776B2, “Alkali metal salt of thiazolidine-2,4-dione derivative” (Kyorin Pharmaceutical Co., Ltd., priority 2000, dated 2004).

Assays:
[1] = reported in M. Nomura et al, Bioorg. Med. Chem. Lett., 1999, 9, 533
[2] = system: human peroxisome proliferator-activated receptor (PPAR); settings: reported in K. Murakami et al, Diabetes. 1998, 47, 1841

COc1ccc(CC2SC(=O)NC2=O)cc1C(=O)NCc1ccc(C(F)(F)F)cc1 (centres unmarked) [KRP-297, 5-[(2,4-Dioxothiazolidin-5-yl)methyl]-2-methoxy-N-[[4-(trifluoromethyl)phenyl]methyl]benzamide]
antihyperglycemic activity [1]: excellent antihyperglycemic activity
agonistic action against human PPAR [2]: agonistic action
